Data as given in ChEMBL document CHEMBL1157637, “Potent DNA-directed alkylating agents: Synthesis and biological activity of phenyl N-mustard-quinoline conjugates having a urea or hydrazinecarboxamide linker” (Bioorg Med Chem, 2010).
Calls of active or inactive are those of the source. The rule behind the calls is not given here.

Assays:
CCRF-CEM [1] = test: Selectivity ratio of IC50 for vinblastine-resistant human CCRF-CEM cells to IC50 for human CCRF-CEM cells; type: functional
CCRF-CEM [2] = test: Selectivity ratio of IC50 for taxol-resistant human CCRF-CEM cells to IC50 for human CCRF-CEM cells; type: functional
MX1 [3] = test: Cytotoxicity against human MX1 cells after 72 hrs by SRB assay; type: functional, cell-based; conditions: MX1, 72 h
CCRF-CEM [4] = test: Cytotoxicity against taxol-resistant human CCRF-CEM cells after 72 hrs by XTT assay; type: functional, cell-based
CCRF-CEM [5] = test: Cytotoxicity against vinblastine-resistant human CCRF-CEM cells after 72 hrs by XTT assay; type: functional, cell-based
CCRF-CEM [6] = test: Cytotoxicity against human CCRF-CEM cells after 72 hrs by XTT assay; type: functional, cell-based
HCT-116 = test: Cytotoxicity against human HCT116 cells after 72 hrs by SRB assay; type: functional, cell-based; conditions: HCT-116, 72 h
[7] = Cytotoxicity against human H1299 cells after 72 hrs by alamar blue assay; type: functional, cell-based; conditions: NCI-H1299, 72 h
[8] = Cytotoxicity against human CL1-5 cells after 72 hrs by alamar blue assay; type: functional, cell-based; conditions: CL1-5, 72 h
PC-3 = test: Cytotoxicity against human PC3 cells after 72 hrs by alamar blue assay; type: functional, cell-based; conditions: PC-3, 72 h
Nucleic Acid [9] = test: Binding affinity to pEGFP-N1 DNA assessed as formation of interstrand cross-links with DNA by alkaline gel shift assay; type: nucleic-acid assay
MCF7 = test: Cytotoxicity against human MCF7 cells after 72 hrs by alamar blue assay; type: functional, cell-based; conditions: MCF7, 72 h
[10] = Cytotoxicity against human CL1-0 cells after 72 hrs by alamar blue assay; type: functional, cell-based; conditions: CL1-0, 72 h
Nucleic Acid [11] = test: Binding affinity to DNA in human H1299 cells assessed as formation of DNA cross-links at 200 uM followed by irradiation by modified single cell gel electrophoresis comet assay; type: cell-based
Mus musculus = test: Toxicity in nu/nu nude mouse assessed as body weight loss at 100 mg/kg, iv administered as injection in Q2D x 5 schedule measured on day 16; type: organism-based; design: dose 100 mg/kg, route intravenous; conditions: in vivo
MX1 [12] = test: Antitumor activity against human MX1 cells xenografted in nu/nu nude mouse assessed as complete tumor remission at 100 mg/kg, iv administered as injection in Q2D x 5 schedule measured on day 70; type: functional, organism-based; design: dose 100 mg/kg
MX1 [13] = test: Antitumor activity against human MX1 cells xenografted in nu/nu nude mouse assessed as complete tumor remission at 100 mg/kg, iv administered as injection in Q2D x 5 schedule measured on day 18; type: functional, organism-based; design: dose 100 mg/kg

| SMILES | Ratio IC50 (CCRF-CEM [1]) | Ratio IC50 (CCRF-CEM [2]) | IC50 (MX1 [3]) | IC50 (CCRF-CEM [4]) | IC50 (CCRF-CEM [5]) | IC50 (CCRF-CEM [6]) | IC50 (HCT-116) | IC50 [7] | IC50 [8] | IC50 (PC-3) | Activity (Nucleic Acid [9]) | IC50 (MCF7) | IC50 [10] | Activity (Nucleic Acid [11]) | Activity (Mus musculus) | Activity (MX1 [12]) | Activity (MX1 [13]) |
| --- | --- | --- | --- | --- | --- | --- | --- | --- | --- | --- | --- | --- | --- | --- | --- | --- | --- |
| CC[C@]1(O)C[C@@H]2CN(CCc3c([nH]c4ccccc34)[C@@](C(=O)OC)(c3cc4c(cc3OC)N(C)[C@H]3[C@@](O)(C(=O)OC)[C@H](OC(C)=O)[C@]5(CC)C=CCN6CC[C@]43[C@@H]65)C2)C1 [VINBLASTINE] | 679.5 | 106.2 |  |  |  |  |  |  |  |  |  |  |  |  |  |  |  |
| CC(=O)O[C@H]1C(=O)[C@@]2(C)[C@H]([C@H](OC(=O)c3ccccc3)[C@]3(O)C[C@H](OC(=O)[C@H](O)[C@@H](NC(=O)c4ccccc4)c4ccccc4)C(C)=C1C3(C)C)[C@]1(OC(C)=O)CO[C@@H]1C[C@@H]2O [PACLITAXEL] | 980 | 330 |  |  |  |  |  |  |  |  |  |  |  |  |  |  |  |
| O=C(Nc1ccc(N(CCCl)CCCl)cc1)Nc1cc(-c2ccccc2F)nc2cc3c(cc12)OCO3 | 0.76 | 0.84 | 13.1 µM | 2.61 µM | 2.35 µM | 3.09 µM | 25.4 µM |  |  |  |  |  |  |  |  |  |  |
| O=C(NNc1ccc(N(CCCl)CCCl)cc1)Nc1cc(-c2ccccc2)nc2ccccc12 | 2.11 | 1.57 | 1.78 µM | 0.908 µM | 1.22 µM | 0.578 µM | 1.26 µM | 4.38 µM | 3.01 µM | 10.5 µM | Active | 6.24 µM | 4.07 µM |  |  |  |  |
| COc1cccc(-c2cc(NC(=O)Nc3ccc(N(CCCl)CCCl)cc3)c3cc(Cl)ccc3n2)c1 | 0.55 | 0.59 | 2.25 µM | 1.1 µM | 1.03 µM | 1.88 µM | 4.88 µM |  |  |  |  |  |  |  |  |  |  |
| O=C(NNc1ccc(N(CCCl)CCCl)cc1)Nc1cc(-c2ccccc2)nc2cc3c(cc12)OCO3 | 1.92 | 2.22 | 1.02 µM | 0.574 µM | 0.495 µM | 0.258 µM | 2.02 µM |  |  |  |  |  |  |  |  |  |  |
| Cc1cc(NC(=O)Nc2ccc(N(CCCl)CCCl)cc2)c2cc3c(cc2n1)OCO3 | 2.3 | 2.2 | 0.584 µM | 0.605 µM | 0.652 µM | 0.279 µM | 0.402 µM | 5.44 µM | 7.27 µM | 5.96 µM |  | 4.91 µM | 6.23 µM |  |  |  |  |
| COc1cccc(-c2cc(NC(=O)Nc3ccc(N(CCCl)CCCl)cc3)c3cc(N4CCCC4)ccc3n2)c1 | 7.58 | 0.02 | 265 µM | 2.23 µM | 774 µM | 102 µM | 168 µM | 3.81 µM | 9.49 µM | 11.1 µM |  | 6.93 µM | 7.09 µM |  |  |  |  |
| COc1cccc(-c2cc(NC(=O)NNc3ccc(N(CCCl)CCCl)cc3)c3cc4c(cc3n2)OCO4)c1 | 5.43 | 3.51 | 0.749 µM | 0.734 µM | 1.13 µM | 0.209 µM | 1.37 µM | 2.05 µM | 4.85 µM | 2.98 µM |  | 3.35 µM | 2.87 µM |  |  |  |  |
| O=C(NNc1ccc(N(CCCl)CCCl)cc1)Nc1cc(-c2ccccc2F)nc2cc3c(cc12)OCO3 | 2.23 | 2.09 | 42.6 µM | 2.98 µM | 3.17 µM | 1.42 µM | 6.48 µM | 0.491 µM | 2.65 µM | 4.77 µM |  | 1.82 µM | 3.47 µM |  |  |  |  |
| Cc1cc(NC(=O)Nc2ccc(N(CCCl)CCCl)cc2)c2cc(N(C)C)ccc2n1 | 2.3 | 2.9 | 0.184 µM | 0.308 µM | 0.242 µM | 0.107 µM | 0.3 µM | 0.714 µM | 2.52 µM | 2 µM |  | 2.13 µM | 1.73 µM |  |  |  |  |
| COc1ccc2nc(C)cc(NC(=O)Nc3ccc(N(CCCl)CCCl)cc3)c2c1 | 1.5 | 1 | 0.645 µM | 0.313 µM | 0.458 µM | 0.309 µM | 0.83 µM | 1.31 µM | 5.33 µM | 3.15 µM |  | 5.19 µM | 5.58 µM |  |  |  |  |
| O=C(Nc1ccc(N(CCCl)CCCl)cc1)Nc1cc(-c2ccccc2)nc2ccccc12 | 0.99 | 0.87 | 3.47 µM | 1.46 µM | 1.66 µM | 1.69 µM | 7.79 µM |  |  |  |  |  |  |  |  |  |  |
| N[C@@H](Cc1ccc(N(CCCl)CCCl)cc1)C(=O)O |  |  |  |  |  |  |  |  |  |  |  |  |  | 39.7% |  |  |  |
| O=C(Nc1ccc(N(CCCl)CCCl)cc1)Nc1cc(-c2ccccc2F)nc2ccc(N3CCCC3)cc12 | 1.62 | 5.22 | 115 µM | 39.9 µM | 12.4 µM | 7.65 µM | 44.2 µM |  |  |  |  |  |  |  |  |  |  |
| COc1cccc(-c2cc(NC(=O)NNc3ccc(N(CCCl)CCCl)cc3)c3cc(N4CCCC4)ccc3n2)c1 | 2.35 | 1.6 | 1.32 µM | 0.568 µM | 0.833 µM | 0.354 µM | 0.643 µM | 0.945 µM | 5.87 µM | 3.34 µM |  | 5.46 µM | 2.92 µM |  |  |  |  |
| Cc1cc(NC(=O)Nc2ccc(N(CCCl)CCCl)cc2)c2cc(N3CCCC3)ccc2n1 | 1.43 | 1.87 | 16.6 µM | 16.9 µM | 12.9 µM | 9.02 µM | 13.4 µM |  |  |  |  |  |  |  |  |  |  |
| COc1cccc(-c2cc(NC(=O)NNc3ccc(N(CCCl)CCCl)cc3)c3cc(Cl)ccc3n2)c1 | 2.91 | 3.08 | 14.6 µM | 2.25 µM | 2.13 µM | 0.732 µM | 13.9 µM |  |  |  |  |  |  |  |  |  |  |
| COc1cccc(-c2cc(NC(=O)Nc3ccc(N(CCCl)CCCl)cc3)c3cc4c(cc3n2)OCO4)c1 | 0.79 | 0.7 | 20.6 µM | 1.96 µM | 2.22 µM | 2.82 µM | 8.87 µM |  |  |  |  |  |  |  |  |  |  |
| O=C(Nc1ccc(N(CCCl)CCCl)cc1)Nc1cc(-c2ccccc2)nc2cc3c(cc12)OCO3 | 0.82 | 0.99 | 7.41 µM | 2.23 µM | 1.84 µM | 2.25 µM | 9.92 µM |  |  |  |  |  |  |  |  |  |  |
| O=C(NNc1ccc(N(CCCl)CCCl)cc1)Nc1cc(-c2ccccc2F)nc2ccc(N3CCCC3)cc12 | 2.05 | 1.72 | 2.26 µM | 0.261 µM | 0.312 µM | 0.152 µM | 0.192 µM | 0.604 µM | 0.511 µM | 0.954 µM |  | 1 µM | 0.694 µM |  |  |  |  |
| COc1cccc(-c2cc(NC(=O)NNc3ccc(N(CCCl)CCCl)cc3)c3cc(OC)ccc3n2)c1 | 2.94 | 3.9 | 3.46 µM | 2.15 µM | 1.62 µM | 0.552 µM | 3.44 µM | 5.99 µM | 11 µM | 6.45 µM | Active | 15.4 µM | 11.7 µM |  |  |  |  |
| COc1cccc(-c2cc(NC(=O)Nc3ccc(N(CCCl)CCCl)cc3)c3cc(OC)ccc3n2)c1 | 1.53 | 1.62 | 1.83 µM | 0.588 µM | 0.557 µM | 0.362 µM | 3.69 µM | 5.69 µM | 3.82 µM | 5.88 µM |  | 3.04 µM | 4.73 µM |  | 13% | Active | Active |
